The test system of assay [1] is Rattus norvegicus. As to the kind of experiment: Subcutaneously administered dose (in vivo) in male Wistar rats in a striatal microdialysis analysis and its metabolite, 5,6-di-OH-DPAT was found to be present. It is filed as functional.
The subject of assay [2] is Rattus norvegicus. In words: Dopamine (DA) agonistic activity (% decrease in endogenous dopamine level) after peroral administration at a dose of 1.2 uM/kg; Inactive. The class given is functional, organism-based.
The subject of assay [3] is Rattus norvegicus. As to the kind of experiment: Dopamine (DA) agonistic activity (% decrease in endogenous dopamine level) after peroral administration at a dose of 0.4 uM/Kg. It is filed as functional.
Assay [4] concerns Rattus norvegicus. In words: Dopamine (DA) agonistic activity (% decrease in endogenous dopamine level) after peroral administration at a dose of 1.2 uMl/Kg. The class given is functional.

Calls of active or inactive are those of the source. The calls are words filed in the database; no cut-off is given here.

Turning to `CCCN(CCC)[C@@H]1CCC2=C(CCCC2=O)C1`, in the assay with Rattus norvegicus [1], the Dose came to 350 µM/kg. Also, in the assay with Rattus norvegicus [2], the Decrease entry is “inactive”.
Take `CCCN(CCC)[C@H]1CCC2=C(CCCC2=O)C1`: the Dose with Rattus norvegicus [1] stood at 35 µM/kg. The Decrease is on record as 50% with Rattus norvegicus [3] and 70% with Rattus norvegicus [4].
